{"source": "patent US20260263480A1", "about": "“PHARMACEUTICAL COMPOSITION CONTAINING A DIPEPTIDYL PEPTIDASE SMALL MOLECULE INHIBITOR” (HAISCO PHARMACEUTICALS PTE. LTD., priority 2023, published 2026)", "key": {"[1]": {"system": "LPS-induced acute lung injury", "conditions": "cited from earlier work"}, "NE enzyme": {"system": "NE enzyme", "conditions": "cited from earlier work"}, "[2]": {"conditions": "both, Sprague-Dawley (SD), rat, in vivo, 14 days", "experimental": "The treatment group each includes 16 rats, and the vehicle control group includes 10 rats, with a half of male rats and a half of female rats. The drug at corresponding concentrations and the vehicle were administered to the rats through oral gavage daily for 14 consecutive days. The rats were allowed to recover for 7 days. During the administration period, general conditions, body weight and food intake were detected for each group. After the administration period and the recovery period, hematology test, serum biochemistry test and gross anatomical examination were performed for each group."}}}
{"smiles": "Cn1c(=O)oc2ccc(-c3ccc(C[C@@H](C#N)NC(=O)[C@@H]4CNCCCO4)c(F)c3)cc21", "note": "[Compound A, (S)—N—((S)-1-cyano-2-(2-fluoro-4-(3-methyl-2-oxo-2,3-dihydrobenzo[d]oxazol-5-yl)phenyl)ethyl)-1,4-oxazepane-2-carboxamide]", "values": [{"measurement": "Effect on LPS-induced acute lung injury in mice", "setting": "[1]", "value": "mitigate LPS-induced acute lung injury in mice"}, {"measurement": "Inhibition of NE enzyme activity in rat bone marrow", "setting": "NE enzyme", "value": "significantly inhibit NE enzyme activity in rat bone marrow"}, {"measurement": "Toxicity compared at the same dose", "setting": "[2]", "value": "less toxic than INS1007"}]}
